# Experiment: recombinant barcode read abundance after kanamycin selection (control-corrected) (log10(CPM+1)); higher = more efficient recombination; sequences stand for … in AGTGCAGAGAAAATCGGCCAGTTTTCTCTGCCTGCAGTCCGCATGCCGT…AGATTTATGCAGCGGACTGCCTTTCTCCCAAAGTGATAAACCGGACAGTATCATGGACCGGTTTTCCCGGTAATCCGTATTTGCAAGGTTGGTTTCACT; site = the 11-nt target
# Procedure, shortened: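 Targets and IS621 bridge RNA target-binding loops were paired in oligos, each with a promoter, a barcode and the J23119-driven first 104 bridge RNA bases. A vector carrying the remaining 73 bp and a T7-inducible recombinase received these by Gibson cloning, and the pool was co-electroporated into E. coli with a donor plasmid. Duplicate plates contained chloramphenicol/ampicillin LB agar (control) or chloramphenicol/ampicillin/kanamycin with 0.1 mM IPTG. Recombination efficiency comes from averaged, control-corrected counts per million of recombinant-junction barcodes, reported as log10(CPM+1).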
# 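Also: IS621 recombinase and bridge RNA in Escherichia coli cells.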
row,Sequence,recombinant barcode read abundance (log10)
1,TACGCCTCTTGGGTTCTAACCTGTTGCTA (site TACGCCTCTTA),1.31
2,TACGCCTCTTGGGTTCTAACCTGTTGCTA (site TGCGCCTCTCA),0.299
3,TACGGGGCTTGGGTTCTAACCTGTTGCCT (site TACGAGGCTAG),0.166
4,TACGGGGCTTGGGTTCTAACCTGTTGCCT (site TACGCGGCTAG),0.139
5,TACGGGGCTTGGGTTCTAACCTGTTGCCT (site TACGGGGCTAG),0.572
6,TACGGGGCTTGGGTTCTAACCTGTTGCCT (site TACGTGGCTAG),0.414
7,TACGGGTCTTGGGTTCTAACCTGTTGCCT (site AAGGGGTCTAG),0.0993
8,TACGGGTCTTGGGTTCTAACCTGTTGCCT (site TACGGGTCTAG),1.16
9,TACTAAACTTGGGTTCTAACCTGTTGCCT (site TACTAAACTAG),0.267
10,TACTAAACTTGGGTTCTAACCTGTTGCCT (site TACTCAACTAG),0.0276
11,TACTAAACTTGGGTTCTAACCTGTTGCCT (site TACTGAACTAG),0.0606
12,TACTAAACTTGGGTTCTAACCTGTTGCCT (site TACTTAACTAG),0.00687
13,TACTAAGCTTGGGTTCTAACCTGTTGCAT (site TACTAAGCTAA),0.149
14,TACTAAGCTTGGGTTCTAACCTGTTGCAT (site TACTAAGCTAC),0.0997
15,TACTAAGCTTGGGTTCTAACCTGTTGCAT (site TACTAAGCTAG),0.274
16,TACTAAGCTTGGGTTCTAACCTGTTGCAT (site TACTAAGCTAT),0.523
17,TACTAAGCTTGGGTTCTAACCTGTTGCGT (site TACTAAGCTAA),0.238
18,TACTAAGCTTGGGTTCTAACCTGTTGCGT (site TACTAAGCTAC),1.1
19,TACTAAGCTTGGGTTCTAACCTGTTGCGT (site TACTAAGCTAG),0.122
20,TACTAAGCTTGGGTTCTAACCTGTTGCGT (site TACTAAGCTAT),0.149
21,TACTCAACTTGGGTTCTAACCTGTTGCCT (site TACTAAACTAG),0.376
22,TACTCAACTTGGGTTCTAACCTGTTGCCT (site TACTCAACTAG),0.0463
23,TACTCAACTTGGGTTCTAACCTGTTGCCT (site TACTGAACTAG),0.0105
24,TACTCAACTTGGGTTCTAACCTGTTGCCT (site TACTTAACTAG),0
25,TACTCACCTTGGGTTCTAACCTGTTGCTT (site ACTGGTTCTCG),0.022
26,TACTCACCTTGGGTTCTAACCTGTTGCTT (site TACTCACCTAA),0.287

row,Sequence,recombinant barcode read abundance (log10)
1,TACTGATCTTGGGTTCTAACCTGTTGCCT (site TAATGATCTAG),0.0666
2,TACTGATCTTGGGTTCTAACCTGTTGCCT (site TACTGATCTAG),0.461
3,TACTGATCTTGGGTTCTAACCTGTTGCCT (site TAGTGATCTAG),0.0404
4,TACTGATCTTGGGTTCTAACCTGTTGCCT (site TATTGATCTAG),0.0711
5,TACTTCGCTTGGGTTCTAACCTGTTGCCT (site CACATCGCTAG),0.042
6,TACTTCGCTTGGGTTCTAACCTGTTGCCT (site TACTTCGCTAG),0.193
7,TAGAAAGCTTGGGTTCTAACCTGTTGCCA (site TAGAAAGCTTG),0.633
8,TAGAAAGCTTGGGTTCTAACCTGTTGCCA (site TAGGAAGCTTC),0.139
9,TAGAACACTTGGGTTCTAACCTGTTGCTC (site TAGAACACTAA),0.421
10,TAGAACACTTGGGTTCTAACCTGTTGCTC (site TAGAACACTCA),0.151
11,TAGAACACTTGGGTTCTAACCTGTTGCTC (site TAGAACACTGA),0.262
12,TAGAACACTTGGGTTCTAACCTGTTGCTC (site TAGAACACTTA),0.0884
13,TAGAACACTTGGGTTCTAACCTGTTGCTT (site TAGAACACTAA),0.16
14,TAGAACACTTGGGTTCTAACCTGTTGCTT (site TAGAACACTCA),0.0447
15,TAGAACACTTGGGTTCTAACCTGTTGCTT (site TAGAACACTGA),0.153
16,TAGAACACTTGGGTTCTAACCTGTTGCTT (site TAGAACACTTA),0.169
17,TAGAAGACTTGGGTTCTAACCTGTTGCAT (site TAGAAGACTAT),1.01
18,TAGAAGACTTGGGTTCTAACCTGTTGCAT (site TATAAGACTGT),0.0979
19,TAGAAGCCTTGGGTTCTAACCTGTTGCCT (site AAGAAGCCTAG),0.248
20,TAGAAGCCTTGGGTTCTAACCTGTTGCCT (site CAGAAGCCTAG),0.43
21,TAGAAGCCTTGGGTTCTAACCTGTTGCCT (site GAGAAGCCTAG),0.06
22,TAGAAGCCTTGGGTTCTAACCTGTTGCCT (site TAGAAGCCTAG),1.11
23,TAGAAGGCTTGGGTTCTAACCTGTTGCCT (site TAGAAGGCTAA),0.139
24,TAGAAGGCTTGGGTTCTAACCTGTTGCCT (site TAGAAGGCTAC),0.1
25,TAGAAGGCTTGGGTTCTAACCTGTTGCCT (site TAGAAGGCTAG),0.216
26,TAGAAGGCTTGGGTTCTAACCTGTTGCCT (site TAGAAGGCTAT),0.325

row,Sequence,recombinant barcode read abundance (log10)
1,TAGAAGGCTTGGGTTCTAACCTGTTGCTT (site TAGAAGGCTAA),0.805
2,TAGAAGGCTTGGGTTCTAACCTGTTGCTT (site TAGAAGGCTAC),0.0392
3,TAGAAGGCTTGGGTTCTAACCTGTTGCTT (site TAGAAGGCTAG),0.0656
4,TAGAAGGCTTGGGTTCTAACCTGTTGCTT (site TAGAAGGCTAT),0.28
5,TAGAATCCTTGGGTTCTAACCTGTTGCAA (site TAGAATCCTAT),0.15
6,TAGAATCCTTGGGTTCTAACCTGTTGCAA (site TAGAATCCTCT),0.123
7,TAGAATCCTTGGGTTCTAACCTGTTGCAA (site TAGAATCCTGT),0.116
8,TAGAATCCTTGGGTTCTAACCTGTTGCAA (site TAGAATCCTTT),0.147
9,TAGACGGCTTGGGTTCTAACCTGTTGCAT (site GGATACACTCG),0.191
10,TAGACGGCTTGGGTTCTAACCTGTTGCAT (site TAGACGGCTAT),0.463
11,TAGAGAGCTTGGGTTCTAACCTGTTGCAG (site TAGAGAGCTCT),1.94
12,TAGAGAGCTTGGGTTCTAACCTGTTGCAG (site TAGGGAGCTAT),0.265
13,TAGAGCCCTTGGGTTCTAACCTGTTGCGG (site TAGAGCCCTCC),0.953
14,TAGAGCCCTTGGGTTCTAACCTGTTGCGG (site TCGAGGCCTCC),0.0902
15,TAGATCCCTTGGGTTCTAACCTGTTGCTT (site TAGAACCCTAA),0.245
16,TAGATCCCTTGGGTTCTAACCTGTTGCTT (site TAGATCCCTAA),0.528
17,TAGCACCCTTGGGTTCTAACCTGTTGCCG (site TAGCACCCTAG),0.287
18,TAGCACCCTTGGGTTCTAACCTGTTGCCG (site TAGCACCCTCG),1.19
19,TAGCACCCTTGGGTTCTAACCTGTTGCCG (site TAGCACCCTGG),0.239
20,TAGCACCCTTGGGTTCTAACCTGTTGCCG (site TAGCACCCTTG),0.356
21,TAGCAGTCTTGGGTTCTAACCTGTTGCGC (site CGCGCCACTAG),0.251
22,TAGCAGTCTTGGGTTCTAACCTGTTGCGC (site TAGCAGTCTGC),2.05
23,TAGCATGCTTGGGTTCTAACCTGTTGCAA (site TAGCATGCTAT),0.382
24,TAGCATGCTTGGGTTCTAACCTGTTGCAA (site TAGCATGCTCT),0.597
25,TAGCATGCTTGGGTTCTAACCTGTTGCAA (site TAGCATGCTGT),0.115

# From the supplement of paper PMC11208160
